Series [1] addresses T1, α-syn fibrils (Homo sapiens, UniProt P37840).
T1 construct: made in house; host or cells: Escherichia coli BL21(DE3)
Briefly: Inhibition of thioflavin T binding to α-syn fibrils (fluorescence competition), Ki determination. How it is done: (§1) Wild-type α-syn and Aβ1-42 were expressed in the Escherichia coli strain BL21(DE3) (Stratagene, La Jolla, CA, USA) and purified as described. […] For the Aβ1-42 peptide, the concentration was determined by a fluorometric method using the reactive compound fluorescamine (Sigma, San Jose, CA, USA) that reacts with primary amino groups to form a fluorescent product. The human Tau protein (isoform h2N4RTau) was expressed in the pET11d vector in the Escherichia coli strain BL21(DE3) (Stratagene, La Jolla, CA, USA) and purified as described.
(§2) For assembly into fibrils, α-syn was incubated in 50 mM Tris-HCl, pH 7.5, 150 mM KCl at 37 °C under continuous shaking for 4 days. Lyophilized Aβ1-42 was dissolved in 1,1,1,3,3,3-hexafluoro-2-propanol (HFIP) at a concentration of 0.2 mg/mL and incubated for 24 h at 37 °C to achieve complete solubilization. HFIP was evaporated under a nitrogen stream to obtain a dry film. To start assembly into fibrils, the dry peptide was resuspended in PBS pH 7.4, 10% (v/v) DMSO and incubated at 37 °C without shaking for 3 days. The Tau protein was assembled in fibrils in a PBS buffer containing 1 mM of DTT in the presence of 1/12 heparin (v/v) at 37 °C under shaking. […] Protein fibrils were systematically examined by transmission electron microscopy (TEM) in a Jeol 1400 transmission electron microscope following adsorption onto carbon-coated 200 mesh grids and negative staining with 1% uranyl acetate. The images were recorded with a Gatan Orius CCD camera (Gatan, Pleasanton, CA, USA). Finally, the percentage of α-syn or Aβ1-42 aggregated into fibrils was assessed by pelleting fibrils at 40,000× g for 20 min and by determining the concentration of soluble protein/peptide remaining in the supernatant.
(§3) The samples were incubated for 1 h at room temperature to achieve complete equilibration.

For series [2], the target named is T2, Tau fibrils (isoform h2N4RTau) (Homo sapiens, UniProt P10636).
T2 construct: made in house; host or cells: Escherichia coli BL21(DE3), pET11d vector
T2 sequence (P10636 1-441 isoform P10636-8): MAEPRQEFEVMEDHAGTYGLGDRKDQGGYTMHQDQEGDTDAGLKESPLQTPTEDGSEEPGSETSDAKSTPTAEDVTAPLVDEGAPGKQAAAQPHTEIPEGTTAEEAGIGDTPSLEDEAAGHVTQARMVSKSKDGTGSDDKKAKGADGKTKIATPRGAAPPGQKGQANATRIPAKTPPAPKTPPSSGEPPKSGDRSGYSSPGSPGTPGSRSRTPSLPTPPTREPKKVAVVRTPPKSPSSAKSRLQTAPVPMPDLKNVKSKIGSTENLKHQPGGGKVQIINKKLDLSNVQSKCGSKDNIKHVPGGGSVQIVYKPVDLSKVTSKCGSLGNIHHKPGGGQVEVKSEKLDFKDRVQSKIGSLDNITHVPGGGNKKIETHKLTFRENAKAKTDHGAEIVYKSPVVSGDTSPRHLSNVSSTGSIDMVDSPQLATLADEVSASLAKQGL
The experiment in a line: Inhibition of thioflavin T binding to Tau fibrils (fluorescence competition), Ki determination. Conditions: calculated from IC50, competition with ThT 500 nM, fibrils 200 nM, mean ± SD of 3 experiments. How it is done:
as §1, §2, §3

Series [3] addresses T3, Aβ1-42 fibrils (Homo sapiens, UniProt P05067).
T3 construct: Wild-type α-syn and Aβ1-42 were expressed; made in house; host or cells: Escherichia coli BL21(DE3)
Briefly: Inhibition of thioflavin T binding to Aβ1-42 fibrils (fluorescence competition), Ki determination. The note with it: calculated from IC50, competition with ThT 500 nM, fibrils 500 nM, mean ± SD of 3 experiments; read-out: Ki Aβ. How it is done:
as §1, §2, §3

For series [4], the target named is T3, Aβ1-42 fibrils. The experiment in a line: Direct fluorescence titration on Aβ1-42 fibrils: Kd and Bmax. It counts as binding. Conditions: direct assay on fibrils, mean ± SD of 3 experiments; read-out: Kd Aβ. An excerpt:
(§4) In view of the interesting properties of compounds 33–39, we decided to switch to azaindole structures and to study the impact of the position of the nitrogen atom in the 6-membered ring on binding to fibrils. At this step we measured, in addition to the Ki values, the direct binding of each compound to fibrils through the fluorescence in the fraction bound to fibrils, which allowed us to determine the affinity values (Kd, Table 1). […] We therefore prepared a fluorinated derivative of compound 43, i.e., 45.
(§5) Fresh solutions of each tested compound (2.5 mM in DMSO) were diluted in PBS pH 7.4 at concentrations ranging from 0.5 nM to 5 µM in the presence or absence of α-syn, Aβ1-42, or Tau fibrils (200 nM, 500 nM, or 200 nM, respectively) in a final volume of 2 mL. After 1 h incubation at room temperature, the binding of each compound to α-syn, Aβ1-42, or Tau fibrils was assessed by fluorescence measurements using the appropriate excitation/emission wavelengths (i.e., those yielding the highest fluorescence ratio between fibril-bound and free compound). For any given concentration of compound added to the fibrils, the concentrations of compound bound to the fibrils and free in solution were determined on the basis of the measured fluorescence. Since at each point of the titration: Fm = FB × B + FF × (T − B) where Fm is the measured fluorescence of the compound in the presence of fibrils at a given compound concentration T, FB is the specific molar fluorescence of the bound compound, FF is the specific molar fluorescence of the free compound, and B is the concentration of compound bound to the fibrils at any point of the titration. FF was determined by measuring the fluorescence of known compound concentrations in the absence of fibrils. FB was determined by measuring the maximum fluorescence of known compound concentrations upon saturation with α-syn, Aβ1-42, or Tau fibrils.
(§6) Therefore, at each point of the titration, the concentration of bound compound B could be determined and was B = (Fm − FF × T)/FB − FF. The B values thus determined versus the respective concentrations of free compound were analyzed by fitting to the Michaelis-Menten equation.

Series [5] addresses T2, Tau fibrils (isoform h2N4RTau). The experiment in a line: Direct fluorescence titration on Tau fibrils: Kd and Bmax. Format: binding. Conditions: direct assay on fibrils, mean ± SD of 3 experiments.
Description: as §4, §5, §6

Series [6] concerns the target T1, α-syn fibrils. Briefly: Direct fluorescence titration on α-syn fibrils: Kd and Bmax. Format: binding. The note with it: direct assay on fibrils, mean ± SD of 3 experiments.
Description: as §4, §5, §6

Series [7] deals with T1, α-syn fibrils. Conditions: cited from earlier work.
The target of a further series is Aβ fibrils. The note with it: cited from earlier work.
Series [8] concerns the target T1, α-syn fibrils. Briefly: Dynamic PET imaging and ex vivo brain radioactivity in rats with α-syn fibrils implanted in the right striatum. Conditions: Wistar rat. An excerpt: The next step in the characterization of our new PET tracer was to evaluate its ability to bind in vivo to α-syn fibrils. For this aim, we performed a simple preliminary imaging experiment in which the same α-syn fibrils as those used in in vitro experiments were surgically and unilaterally implanted in the brains of two adult Wistar rats. The accumulation of [^18F]45 after intravenous (i.v.) injection was compared, in each animal, between the implanted and intact non-implanted side. The fibrils were administered by stereotaxic injection into the right striatum, [^18F]45 was i.v. injected 1 day later, and image acquisition began at the time of injection using a microPET eXplore Vista (GE Healthcare, Buc, France)/CT system during 3 h. PET images were reconstructed and analyzed in three regions of interest, i.e., the left striatum without fibrils (C-ST), the right striatum with fibrils (I-ST), and the cerebellum (CE). At the end of imaging acquisition, each rat was sacrificed, and brain regions were removed, weighed, and their radioactivity measured.
PET imaging experiments were performed with [^18F]45 on two adult male Wistar rats weighing 250–300 g (Janvier, Le Genest-Saint-Isle, France). The animals were housed in a temperature (23 °C) and humidity (43%) controlled environment under a 12-h light-dark cycle with food and water available ad libitum, and experimental procedures were conducted in accordance with the requirements of the European Community Council Directive 2010/63/EU for the care of laboratory animals and with the authorization of the Regional Ethical Committee (Authorization N°2012-03-1).
The rats were scanned one hour after receiving an intra-cerebral administration of α-syn. They were anesthetized with isoflurane (4% in O2, 500 mL/min, Baxter, France), placed on a stereotaxic frame (Stoelting, Phymep, Paris, France) and maintained under isoflurane 2.5% (500 mL/min) during surgery. Body temperature was monitored and kept at 37 °C. Fibrils of α-syn were prepared as described above (solution of 10 mg/mL in PBS). This solution was administered in two sites of the right striatum of each rat using a 25 μL Hamilton Gastight syringe (Hamilton, Massy, France) with a 30-gauge needle (Phymep, Paris, France) connected to a perfusion system. […]
For the PET experiment, each rat was anesthetized with isoflurane (Baxter, Guyancourt, France), at 4–5% in O2 for induction and then 1.5–2% during scanning, and received an i.v. bolus injection of 42–46 MBq of [^18F]45 (molar activity 99.69 GBq/µmol) into the tail vein. […] The quantification of the tracer uptake was extracted from the last 6 120-s frames corresponding to 49–61 min of acquisition after tracer injection. […] PET images were reconstructed and analyzed using PMOD (3.403, PMOD Technologies, Zurich, Switzerland). […]

Where [9] appears, read: calculated from IC50, competition with ThT 500 nM, fibrils 200 nM, mean ± SD of 3 experiments.

Molecules are shown by their SMILES. Where two headings read alike, the source gives them in different places.

T3 sequence (P05067 672-713): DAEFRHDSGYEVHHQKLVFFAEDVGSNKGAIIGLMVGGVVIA

For `C(#Cc1cc2ccccc2[nH]1)c1ccccc1` [Compound 31], the Ki on α-syn fibrils [1] is above 100 nM; in [2], 19.6 ± 2 nM; at Aβ1-42 fibrils [3], 68.9 ± 30 nM.

Turning to `Cc1ccc(C#Cc2cc3ccccc3[nH]2)cc1` [Compound 32], the results for the Ki (on α-syn fibrils [1]; in series [2]; at Aβ1-42 fibrils [3]) were above 100 nM, 13.1 ± 2 nM and 37.9 ± 13 nM, respectively.

In the case of `CCc1ccc(C#Cc2cc3ccccc3[nH]2)cc1` [Compound 33], the results for the Ki (on α-syn fibrils [1]; in series [2]; on Aβ1-42 fibrils [3]) were 35.9 ± 5 nM, 32.9 ± 8 nM and 3.3 ± 1 nM, respectively.

For the molecule `COc1ccc(C#Cc2cc3ccccc3[nH]2)cc1` [Compound 34], the Ki on α-syn fibrils [1] is 96.7 ± 14 nM; in series [2], 33.1 ± 7 nM; on Aβ1-42 fibrils [3], 68.9 ± 14 nM.

With `Nc1ccc(C#Cc2cc3ccccc3[nH]2)cc1` [Compound 35], the Ki at α-syn fibrils [1] is 40.4 ± 6 nM; in series [2], 123 ± 28 nM; at Aβ1-42 fibrils [3] it was 26.2 ± 11 nM.

As for `Nc1cccc(C#Cc2cc3ccccc3[nH]2)c1` [Compound 36], the Ki is above 100 nM at α-syn fibrils [1], 7.2 ± 1 nM in [2] and 15.3 ± 7 nM at Aβ1-42 fibrils [3].

With `CNc1ccc(C#Cc2cc3ccccc3[nH]2)cc1` [Compound 37], the Ki is 47.8 ± 9 nM at α-syn fibrils [1], 17.2 ± 3 nM in [2] and 6.6 ± 2 nM at Aβ1-42 fibrils [3].

For `CN(C)c1ccc(C#Cc2cc3ccccc3[nH]2)cc1` [Compound 38], the results for the Ki (at α-syn fibrils [1]; in series [2]; at Aβ1-42 fibrils [3]) were 36 ± 7 nM, 27.6 ± 3 nM and 64.4 ± 40 nM, respectively.

Regarding `COc1ccc2[nH]c(C#Cc3ccc(N(C)C)cc3)cc2c1` [Compound 39], the Ki was 21.7 ± 6 nM on α-syn fibrils [1] and 12.7 ± 1 nM in [2].

In the case of `CN(C)c1ccc(C#Cc2cc3cc(OCCF)ccc3[nH]2)cc1` [Compound 40], the Ki on α-syn fibrils [1] is above 100 nM; in [2], 15.8 ± 3 nM; at Aβ1-42 fibrils [3], 10.1 ± 5 nM.

In the case of `CN(C)c1ccc(C#Cc2cc3ncccc3[nH]2)cc1` [Compound 41], the Kd at Aβ1-42 fibrils [4] turned out to be 2.9 ± 2 nM; in series [5], 0.13 ± 0.05 nM; on α-syn fibrils [6], 3.25 ± 0.2 nM. In addition, the Ki on α-syn fibrils [1] (setting [9]) is 26 ± 16 nM; in series [2], 12 ± 1 nM; on Aβ1-42 fibrils [3], 21.3 ± 7 nM.

As for `CN(C)c1ccc(C#Cc2cc3ccncc3[nH]2)cc1` [Compound 42], the Kd was determined as 5.2 ± 3 nM at Aβ1-42 fibrils [4], 0.49 ± 0.2 nM in [5] and 1.4 ± 1 nM on α-syn fibrils [6]. Further, the Ki at α-syn fibrils [1] (setting [9]) was 28.7 ± 8 nM; in [2] it was 8.4 ± 1 nM; on Aβ1-42 fibrils [3] it was 91.5 ± 11 nM.

For the molecule `CN(C)c1ccc(C#Cc2cc3cnccc3[nH]2)cc1` [Compound 44], the Kd was 3.6 ± 2 nM on Aβ1-42 fibrils [4], 2.4 ± 0.9 nM in series [5] and 1 ± 0.5 nM at α-syn fibrils [6]. The Ki at α-syn fibrils [1] was 26 ± 16 nM; at Aβ1-42 fibrils [3], 21.3 ± 7 nM.

`CN([11CH3])c1ccc(-c2cc(-c3ccnc(Br)c3)[nH]n2)cc1` [[^11C]MODAG-001]: on α-syn fibrils [7] (in vitro), the “better affinity for α-syn as compared to Aβ and tau fibrils” value is “around 20 times”.

On to `CN(c1ccc(/C=C/c2nc3ccccc3o2)cc1)S(=O)(=O)c1ccccc1[18F]` [[^18F]2FBox], for which the Kd on Aβ fibrils (in vitro, read-out: Kd for Aβ) was 145 nM; at α-syn fibrils [7] (in vitro, read-out: Kd for α-syn fibrils) it was 3.3 nM.

On to `CN(CC[18F])c1ccc(C#Cc2cc3cccnc3[nH]2)cc1` [[^18F]45], for which the “radioactivity accumulation in the three brain regions (CE, I-ST, C-ST) at the end of imaging” value at α-syn fibrils [8] (ex vivo γ-counting after PET, n = 2) was “identical radioactivity accumulation”. Besides, the “ability to cross the blood–brain barrier” value on α-syn fibrils [8] (i.v. 42–46 MBq, dynamic PET 3 h) is “able to cross the blood–brain barrier”. For the same molecule, the “brain uptake kinetics (time-activity curves)” value on α-syn fibrils [8] (i.v. 42–46 MBq, dynamic PET 3 h, CE, I-ST, C-ST) was “slow uptake and almost no washout”. Moreover, the “specificity of brain uptake / in vivo binding to implanted α-syn fibrils” value at α-syn fibrils [8] (α-syn fibrils in right striatum, i.v. 42–46 MBq) is “non-specific uptake was observed”.

With `COc1cccc2ccc(/C=N/N=C/c3ccc4cccc(OCC[18F])c4n3)nc12` [[^18F]BQ2], the “Ki for Aβ” value on Aβ fibrils (compared with Ki for α-syn) is “same Ki for Aβ”. For the same molecule, on α-syn fibrils [7], the Ki is around 10 nM.

As usually defined, the Ki is the equilibrium dissociation constant of an inhibitor or competing ligand from its target. In general, Kd refers to a measure of binding affinity in units of concentration.

(Values after PMC12655733, “Design, Synthesis and Evaluation of the First 2-Alkynyl(aza)indole ^18F Probe Targeting α-Synuclein Aggregates” (Pharmaceuticals, 2025).)
